Legend:
[1] = tested on: spleen lymphocytes; experiment: Lymphocyte stimulation assay after in vivo treatment, C57BL/6 mice; settings: for Lymphocyte Stimulation Index Con-A / Lymphocyte Stimulation Index Control / Lymphocyte Stimulation Index PHA: C57BL/6, Table 3-A
Procedure: (§1) The purpose of this assay is to challange lymphocytes in microcultures with one or more polyclonal mitogens at concentrations that will induce mitogenesis within 72 hours of stimulation.
(§2) In the mouse model, spleens were removed from different strains of mice and the spleen cells were teased free and suspended in RPMI-1640 tissue culture medium at a concentration of usually 1 x 10^7 ml. These cells were dispensed at a concentration of […] cells per microculture well in a 96 well flat bottom tissue culture plate. All testing of the compounds of this invention or mitogens were done in replicates of 10. The cells were then treated with PHA. Con-A, specific antigens, or buffer only. Where in vitro testing was done, varying concentrations of the compounds of this invention or buffer only were added to the cells as well. After treatment with the mitogens and/or compounds of this invention, the cells were incubated for 72 hours. The response of these cells to mitogens and/or the compounds of this invention was assessed using 14 C-thymidine labeling on the fourth day at a concentration of 0.01 microCi/well. The labeled cells were harvested using a lymphocyte harvestor and placed onto fibrous paper discs. A scintillation cocktail was added to vials containing the discs and the results were obtained using a LKB-liquid scintillation counter (Model 1216/Rackbeta II). The data is expressed as a ratio of the cpm (counts per minute) of the mitogen stimulated group to the control (non-mitogen) treated group = lymphocyte stimulation index (LSI).
(§3) The lymphocyte stimulation assay may be performed directly on spleen cells obtained from various strains of mice not treated with the compounds of this invention or on lymphocytes obtained from human plasma. In such experiments, the compounds of this invention were added directly to the spleen lymphcytes in vitro and the assay was completed and results interpreted. Alternatively. the mice may be treated in vivo with the compounds of this invention by intraperitoneal multi-dose schedules, followed by sacrifice and harvesting spleen lymphocytes. These cells were then tested for their response to polyclonal mitogens or specific antigens used to immunize the mice. In this system however, no additional compound was added to the in vitro lymphocyte stimulation assay system.

[2] = tested on: human lymphocytes; experiment: In vitro lymphocyte stimulation assay, human lymphocytes; format: cell-based; set-up: key to Lymphocyte Stimulation Index PHA / Lymphocyte Stimulation Index Con-A: ratio of cpm of mitogen-stimulated to non-mitogen control group (LSI); settings: for Lymphocyte Stimulation Index Con-A / Lymphocyte Stimulation Index PHA: human, Table 6-A
Procedure: as §1, §2, §3
Lymphocytes isolated from 5 human volunteers were treated in vitro with PHA and Con-A and either 10^2, 10^3, 10^4, 5 x 10^4 or 10^5 ng/well of Cpd. 1, 10^2, 10^3, 10^4, 5 x 10^4, or 10^5 ng/well of AA, or buffer.

[3] = tested on: spleen lymphocytes; experiment: In vitro lymphocyte stimulation assay, C57BL/6 spleen lymphocytes; format: cell-based, mice; settings: for effect on response of the lymphocytes to PHA and Con-A: C57BL/6 spleen cells in vitro, Example 19
Procedure: as §1, §2, §3

[4] = tested on: L-1210 leukaemia cells; experiment: L-1210 leukaemia anti-cancer study (NCI protocol), BDF1 mice; format: in vivo; settings: 20 mg/kg, seven days, Table 25
Text: Mice of the BDF1 strain were given an i.p. inoculation of 10^6 L-1210 leukaemia cells on day 0. Twenty-four hours later, groups of 7 mice each were started on a […] treatment regimen of various doses of the compounds of this invention. The experiment was continued according to the guidelines provided under the National Cancer Institute protocol for screening new anti-cancer agents; T/C ratios (median or mean survival time of treated groups over median or mean survival time of controls) were calculated. A T/C value > 1.25 (or 125%) is considered to indicate significant anticancer activity.
Mice of the BDF1 strain, inoculated with L-1210 leukaemia cells, were treated for seven days with either 25, 50, 100, 200 or 400 mg/kg of Cpd. 1 or just buffer. The National Cancer Institute protocol for screening new anti-cancer agents was followed and T/C ratios were calculated.
Mice of the BDFI strain, inoculated with L-1210 leukaemia cells, were treated for seven days with either 100 mg/kg of Cpd. 1, 20 mg/kg of 5-fluorouracil (5-FU), a known anti-cancer agent, or just buffer. The National Cancer Institute protocol for screening new anti-cancer agents was followed and T/C ratios are calculated.

[5] = 1.04x10^3 ng/well in vitro, C57BL/6, Table 12-A
[6] = 1.66x10^4 ng/well in vitro, C57BL/6, Table 12-A
[7] = 2.08x10^3 ng/well in vitro, C57BL/6, Table 12-A
[8] = 4.15x10^3 ng/well in vitro, C57BL/6, Table 12-A
[9] = 8.3x10^3 ng/well in vitro, C57BL/6, Table 12-A
[10] = 1.392x10^4 ng/well, C57BL/6, Table 12-B
[11] = 1.74x10^3 ng/well, C57BL/6, Table 12-B
[12] = 3.48x10^3 ng/well, C57BL/6, Table 12-B
[13] = 6.96x10^3 ng/well, C57BL/6, Table 12-B
[14] = 8.7x10^2 ng/well, C57BL/6, Table 12-B

O=C1O[C@H]([C@@H](O)CO)C(O)=C1O [AA, ascorbic acid]
effect on lymphocyte response, Con-A stimulated group ([1]; 50 mg/kg i.p. 4 days, C57BL/6): single stimulation of proliferation | Lymphocyte Stimulation Index Con-A ([1]; 50 mg/kg i.p. 4 days): 25.5 | Lymphocyte Stimulation Index Control ([1]; 50 mg/kg i.p. 4 days): 0.56 | Lymphocyte Stimulation Index PHA ([1]; 50 mg/kg i.p. 4 days): 17.1 | Lymphocyte Stimulation Index Con-A ([1]; 100 mg/kg i.p. 4 days): 19.8 | Lymphocyte Stimulation Index Control ([1]; 100 mg/kg i.p. 4 days): 1.8 | Lymphocyte Stimulation Index PHA ([1]; 100 mg/kg i.p. 4 days): 17.1 | Lymphocyte Stimulation Index Con-A ([1]; 200 mg/kg i.p. 4 days): 21.1 | Lymphocyte Stimulation Index Control ([1]; 200 mg/kg i.p. 4 days): 1.3 | Lymphocyte Stimulation Index PHA ([1]; 200 mg/kg i.p. 4 days): 10.0 | Lymphocyte Stimulation Index Con-A ([1]; 400 mg/kg i.p. 4 days): 17.8 | Lymphocyte Stimulation Index Control ([1]; 400 mg/kg i.p. 4 days): 1.3 | Lymphocyte Stimulation Index PHA ([1]; 400 mg/kg i.p. 4 days): 14.3 | Lymphocyte Stimulation Index Con-A ([1]; 800 mg/kg i.p. 4 days): 23.9 | Lymphocyte Stimulation Index Control ([1]; 800 mg/kg i.p. 4 days): 0.50 | Lymphocyte Stimulation Index PHA ([1]; 800 mg/kg i.p. 4 days): 12.1 | effect on lymphocyte response with PHA ([1]; 50-800 mg/kg i.p. 4 days, C57BL/6): No statistically significant measureable effect | Lymphocyte Stimulation Index Con-A ([2]; 5x10^4 ng/well in vitro): 23.31 | Lymphocyte Stimulation Index PHA ([2]; 5x10^4 ng/well in vitro): 35.93 | Lymphocyte Stimulation Index Con-A ([2]; 10^2 ng/well in vitro): 24.37 | Lymphocyte Stimulation Index PHA ([2]; 10^2 ng/well in vitro): 38.29 | Lymphocyte Stimulation Index Con-A ([2]; 10^3 ng/well in vitro): 24.76 | Lymphocyte Stimulation Index PHA ([2]; 10^3 ng/well in vitro): 34.69 | Lymphocyte Stimulation Index Con-A ([2]; 10^4 ng/well in vitro): 27.35 | Lymphocyte Stimulation Index PHA ([2]; 10^4 ng/well in vitro): 35.10 | Lymphocyte Stimulation Index Con-A ([2]; 10^5 ng/well in vitro): 25.18 | Lymphocyte Stimulation Index PHA ([2]; 10^5 ng/well in vitro): 34.23 | proliferative or anti-proliferative effect, PHA and Con-A ([2]; 10^2 to 10^5 ng/well, human lymphocytes in vitro): no significant proliferative or anti-proliferative effect

O=C(O)CCC(=O)O [Succinic Acid, succinic acid]
Lymphocyte Stimulation Index Con-A [3, 5]: 64.6 | Lymphocyte Stimulation Index Control [3, 5]: 0.94 | Lymphocyte Stimulation Index PHA [3, 5]: 15.7 | Lymphocyte Stimulation Index Con-A [3, 6]: 38.5 | Lymphocyte Stimulation Index Control [3, 6]: 1.1 | Lymphocyte Stimulation Index PHA [3, 6]: 11.5 | Lymphocyte Stimulation Index Con-A [3, 7]: 51.1 | Lymphocyte Stimulation Index Control [3, 7]: 1.0 | Lymphocyte Stimulation Index PHA [3, 7]: 15.3 | Lymphocyte Stimulation Index Con-A [3, 8]: 42.3 | Lymphocyte Stimulation Index Control [3, 8]: 0.91 | Lymphocyte Stimulation Index PHA [3, 8]: 14.0 | Lymphocyte Stimulation Index Con-A [3, 9]: 35.6 | Lymphocyte Stimulation Index Control [3, 9]: 0.91 | Lymphocyte Stimulation Index PHA [3, 9]: 12.4 | effect on response of the lymphocytes to PHA and Con-A [3]: decrease in PHA and Con-A mitogenesis with increased succinic acid dosage

O=c1[nH]cc(F)c(=O)[nH]1 [5-FU, 5-fluorouracil]
Median Survival Time [4]: 30 | T/C [4]: 1.50

O=C1CCC(=O)N1 [Succinimide, succinimide]
Lymphocyte Stimulation Index Con-A [3, 10]: 92.9 | Lymphocyte Stimulation Index Control [3, 10]: 1.4 | Lymphocyte Stimulation Index PHA [3, 10]: 17.1 | Lymphocyte Stimulation Index Con-A [3, 11]: 83.4 | Lymphocyte Stimulation Index Control [3, 11]: 1.1 | Lymphocyte Stimulation Index PHA [3, 11]: 17.5 | Lymphocyte Stimulation Index Con-A [3, 12]: 85.1 | Lymphocyte Stimulation Index Control [3, 12]: 0.98 | Lymphocyte Stimulation Index PHA [3, 12]: 18.1 | Lymphocyte Stimulation Index Con-A [3, 13]: 71.9 | Lymphocyte Stimulation Index Control [3, 13]: 1.1 | Lymphocyte Stimulation Index PHA [3, 13]: 17.2 | Lymphocyte Stimulation Index Con-A [3, 14]: 76.0 | Lymphocyte Stimulation Index Control [3, 14]: 0.91 | Lymphocyte Stimulation Index PHA [3, 14]: 19.5 | effect on response of the lymphocytes to PHA and Con-A [3]: no significant suppressive or enhancing effect

Reference: patent EP0123446A1, “2-Furylbutyrolactone derivatives, their preparation, compositions containing them, and their use for the modulation of the immune system in mammals” (NATIONAL FOUNDATION FOR CANCER RESEARCH, INC., priority 1983, dated 1984)
